Assay results as given in US9198879B2, “Pharmacologically optimized multimodal drug delivery system for nordihydroguiaretic acid (NDGA)” (Napo Pharmaceuticals, Inc., priority 2011, dated 2015).
Entries after “also recorded” stand apart in the source; their conditions may differ.

Tested on: fructose-fed and fat-fed/STZ rat models
Assay: NDGA versus metformin at equimolar doses in fructose-fed and fat-fed/STZ rat models
Assay type: in vivo
Details: equimolar doses of NDGA or metformin
Text: NDGA has been studied by administering it orally to animals to determine its effectiveness for lowering glucose, free fatty acid (FFA) and triglyceride levels. […] See Example 2 below. […] There was no significant baseline difference between the NDGA and metformin groups.
In one such study, the effects of NDGA and metformin as a control drug for treatment of diabetes were studied in a non-diabetic model of hypertriglyceridemia (fructose-fed) and a non-genetic, (i.e., streptozotocin (STZ) treated) model of diabetes. […] See FIGS. 2 (glucose) and 3 (triglycerides).

In the case of `CN(C)C(=N)N=C(N)N` [metformin], the “change in insulin concentrations” value was “without changing insulin concentration; also recorded: without any change in insulin concentrations”, the “glucose lowering in comparison to the vehicle control” value was “significantly lowered glucose” and the “triglyceride lowering in comparison to the vehicle control” value was “significantly lowered triglycerides”.
